Experimental data taken from US20240383784A1, “ANTIMICROBIAL SYSTEM AND METHOD” (KEMIRA OYJ, priority 2021, published 2024).

Tests used:
[1] = system: Meiothermus silvanus biofilms; test: Biofilm test on 96-microwell peg lids in synthetic paper machine water, Crystal Violet quantification; format: cell-based; conditions: SPW; for Impact (biofilm reduction percentage): 45° C., 150 rpm
From the text: (§1) Pure cultures of Meiothermus silvanus, a microbe species commonly found in paper machine biofilms (Ekman J, Journal of Industrial Microbiology & Biotechnology 34:203-211) and Pseudoxanthomonas taiwanensis, another species commonly found in paper machine environments (Desjardins, E & Beaulieu, C, Journal of Industrial Microbiology & Biotechnology 30:141-145) were used to study the efficacy of various chemicals to prevent biofilm formation.
(§2) Biofilm tests were done in fibre-containing synthetic paper machine water, SPW (prepared according to Peltola, et al., J. Ind. Microbiol. Biotechnol. 38: 1719-1727) using 96-microwell plate wells with peg lids (Thermo Fischer Scientific Inc., USA). Plates were incubated at 45° C. with a rotary shaking (150 rpm) providing high flow in each well.
(§3) Wells of 96-microwell plates with peg-lids were filled with SPW and inoculated with the pure bacterial cultures. Biofilm was grown at 45° C. with a rotary shaking (150 rpm) for 24 hours without addition of any chemical compound to be tested.
(§4) After 24 hours from starting the test, the wells were emptied and a fresh solution of SPW, inoculated with the pure bacterial cultures and with different amounts of chemical compounds to be tested were added and the original peg-lid was placed back in place. After an additional 24 hours the wells were emptied and the biofilm amount on the pegs was quantified.
(§5) The amount of biofilm formed on the peg surfaces was quantified with a staining solution by adding 200 μl of 1% Crystal Violet (Merck Millipore KGaA, Germany) in methanol to each well in a clean 96-well plate and placing the biofilm-containing peg-lid on it. After 3 minutes the wells were emptied and the wells and pegs were rinsed 3 times with tap water. Finally the peg-lid was placed in a clean 96-well plate, the attached Crystal Violet was dissolved into ethanol and the absorbance at 595 nm was measured.
(§6) All parts per million (ppm) amounts given in Examples 1-2 are as active ingredients. The Impact values are calculated as biofilm reduction percentages based on a comparison with no added chemicals. A positive value indicates a reduction in amount of biofilm whereas a negative value indicates an increase in the amount of biofilm.

[2] = system: Pseudoxanthomonas taiwanensis biofilms; test: as above; format: cell-based; conditions: SPW; for Impact (biofilm reduction percentage): 45° C., 150 rpm
From the text: as §1, §2, §3, §4, §5, §6

[3] = Sodium hypochlorite 4 ppm alone
[4] = Sodium hypochlorite 8 ppm alone
[5] = on its own, up to a dosage of 8 or 16 ppm

Cc1ccc(S(=O)(=O)C=CC#N)cc1 [Compound A, 3-[(4-methylphenyl)sulphonyl]-2-propenenitrile]
Impact (biofilm reduction percentage) ([1]; Compound A 0.15 ppm alone, Table 1): 7%
Impact (biofilm reduction percentage) ([1]; Compound A 0.3 ppm alone, Table 1): −7%
Impact (biofilm reduction percentage) ([1]; Compound A 0.3 ppm alone, Table 3): −15%
Impact (biofilm reduction percentage) ([1]; Compound A 0.45 ppm alone, Table 3): 11%
biofilm reduction efficacy (in words) ([1]; at low dosages): ineffective
Impact (biofilm reduction percentage) ([2]; Compound A 0.15 ppm alone, Table 2): 5%
Impact (biofilm reduction percentage) ([2]; Compound A 0.15 ppm alone, Table 4): 19%
Impact (biofilm reduction percentage) ([2]; Compound A 0.3 ppm alone, Table 2): 7%
biofilm reduction efficacy (in words) ([2]; at low dosages): ineffective

NCl [MCA, Monochloramine]
Impact (biofilm reduction percentage) ([1]; MCA 0.5 ppm alone): −22%
Impact (biofilm reduction percentage) ([1]; MCA 1 ppm alone): 4%
Impact (biofilm reduction percentage) ([1]; MCA 1.5 ppm alone): −2%
biofilm reduction efficacy (in words) ([1]; at low dosages): ineffective
Impact (biofilm reduction percentage) ([2]; MCA 0.5 ppm alone): −11%
Impact (biofilm reduction percentage) ([2]; MCA 1 ppm alone): −3%
Impact (biofilm reduction percentage) ([2]; MCA 1.5 ppm alone): 7%
biofilm reduction efficacy (in words) ([2]; at low dosages): ineffective

OCl [Sodium hypochlorite, reference compound]
Impact (biofilm reduction percentage) ([1]; Sodium hypochlorite 2 ppm alone): −71%
Impact (biofilm reduction percentage) [1, 3]: 1%
Impact (biofilm reduction percentage) [1, 4]: 5%
biofilm reduction efficacy (in words) [1, 5]: ineffective
Impact (biofilm reduction percentage) [2, 3]: −3%
Impact (biofilm reduction percentage) [2, 4]: −5%
Impact (biofilm reduction percentage) ([2]; Sodium hypochlorite 16 ppm alone): 0%
biofilm reduction efficacy (in words) [2, 5]: ineffective
